Like-named read-outs stand apart in the source and are kept apart here.
Assays:
[1] = Biodistribution of iodorotenol and iodorotenone compounds in rats (organs and blood weighed and counted); conditions: for uptake in the heart relative to the Z isomer: twenty microcuries into tail vein
Procedure: Evaluation of the iodorotenol and iodorotenone compounds. […] Twenty microcuries of the compound was injected into the rat tail vein. At various time points post injection (30 m, 1 h, 2 h, and 4 h) rats were euthanized and the organs and blood were weighed and counted.

[2] = Dual head planar whole body imaging in canines; conditions: dogs; for heart uptake and retention (planar images): 4-6 mCi 123I compound iv in front leg vein, scans to 7 h (FIG. 17); for uptake in the thyroid: no thyroid blocking agent prior to the scan
Procedure: Two 20-25 kg dogs were anesthetized with iv sodium pentathol and maintained on inhaled isoflurane. Four to six mCi of Z-[^123I]Iodorotenone or E-[^123I]Iodorotenone was injected in a front leg vein. Dual head planar imaging was carried out using the GE Millenium SPECT scanner with Hawkeye xray CT. The scanning protocol was serial 4 m whole body scans over the first hour, 8 m whole body scans from 1-2 h and 30 min whole body scans out to 7 h post injection of the tracer. […] No thyroid blocking agent was introduced prior to the scan.

[3] = tested on: isolated blood perfused rabbit heart; conditions: cited from earlier work

Row | SMILES | uptake in the heart relative to the Z isomer [1] | heart uptake and retention (planar images) [2] | uptake in the thyroid [2] | also measured
1 | COc1cc2c(cc1OC)C1C(CO2)Oc2c(ccc3c2CC(C(C)=CI)O3)C1O (stereo not drawn) [E-iodorotenol, E-7′-iodorotenol] | two-fold increase | – | – | –
2 | COc1cc2c(cc1OC)[C@@H]1C(=O)c3ccc4c(c3O[C@@H]1CO2)C[C@H](/C(C)=C/I)O4 [E-iodorotenone, E-7′-iodorotenone] | nearly double | greater heart uptake and retention | minimal | time to which the heart is clearly visible ([2]; planar imaging post injection): 4.5 h; heart uptake, injected dose in the heart tissue ([1]; tail vein injection, at 1 hour): 6.5 % injected dose
3 | [C-]#[N+]CC(C)(C)OC.[C-]#[N+]CC(C)(C)OC.[C-]#[N+]CC(C)(C)OC.[C-]#[N+]CC(C)(C)OC.[C-]#[N+]CC(C)(C)OC.[C-]#[N+]CC(C)(C)OC.[Tc] [Tc-99m sestamibi] | – | – | – | net heart retention ([3]; at 1 min): 0.41±0.11; net heart retention ([3]; at 26 min): 0.27±0.11; extraction [3]: 0.48±0.10
4 | COc1cc2c(cc1OC)[C@@H]1C(=O)c3ccc4c(c3O[C@@H]1CO2)C[C@H](/C(C)=C\I)O4 [Z-iodorotenone, Z-7′-iodorotenone] | – | washed out of the heart faster | minimal | clearance through the gallbladder and stomach ([2]; planar imaging, compared with the E isomer): more rapidly

— patent US8551448B2, “Rotanone analogs: method of preparation and use” (The Regents of the University of California, priority 2006, dated 2013)
